Data on eight compounds can be found in DBAASP.

Usually MIC stands for the smallest concentration in the dilution series that meets the test's criterion for growth inhibition.

In brackets after ≈: the same amount, converted by molar mass.

Some test systems named below: Escherichia coli ML-35p; Escherichia coli W3110; Acinetobacter baumannii; Escherichia coli O157:H7; Vibrio cholerae O1 Inaba; Escherichia coli D31.
Holding throughout (assay): ≥ marks a high value that may be exact or a test limit, other limits are often not marked, values filed in µg/mL are converted to µM
Assay [1] relates to Staphylococcus aureus ATCC 33591.
In assay [2] the test system is Staphylococcus aureus SG511.
For assay [3], the system named is Acinetobacter baumannii 7226/16.
The test system of assay [4] is Klebsiella pneumoniae ESBL 344/17.
Assay [5] has as its system Pseudomonas aeruginosa 522/17.
The subject of assay [6] is Escherichia coli ESBL 521/17.
Assay [7] deals with Staphylococcus aureus 1399/17.
The test system of assay [8] is Staphylococcus aureus NCTC 12981.
Assay [9] concerns Escherichia coli NCTC 10418.
The subject of assay [10] is Klebsiella pneumoniae ATCC BAA-1705.
Assay [11] relates to Escherichia coli ATCC 25922.
Assay [12] relates to Salmonella enterica ATCC 6539.
Assay [13] has as its system Staphylococcus aureus ATCC 43300.
Assay [14] relates to Pseudomonas aeruginosa ATCC 27853.
The subject of assay [15] is Enterococcus faecium ATCC 700221.
The test system of assay [16] is Klebsiella pneumoniae ATCC 700603.
In assay [17] the test system is Acinetobacter baumannii ATCC BAA-747.
For assay [18], the system named is Acinetobacter baumannii ATCC 19606.
The test system of assay [19] is Candida albicans ATCC 90028.
Assay [20] relates to Staphylococcus aureus SH1000.
Assay [21] relates to Cryptococcus neoformans ATCC 208821.
Assay [22] concerns Staphylococcus aureus ATCC 25923.
Assay [23] deals with Listeria monocytogenes 10403s.
The test system of assay [24] is Bacillus cereus ATCC 11778.
The test system of assay [25] is Shigella sonnei ATCC 11060.
Assay [26] deals with Staphylococcus epidermidis ATCC 12228.
The test system of assay [27] is Enterococcus faecalis ATCC 29212.
Assay [28] relates to Salmonella enterica subsp. enterica serovar Typhimurium ATCC 13311.
The test system of assay [29] is Staphylococcus aureus ATCC 27660.
Assay [30] concerns Pseudomonas aeruginosa ATCC 10145.
For assay [31], the system named is Acinetobacter baumannii LMG 01041.
Assay [32] concerns Pseudomonas aeruginosa LMG 6395.
The test system of assay [33] is Escherichia coli LMG 15862.
In assay [34] the test system is Klebsiella pneumoniae LMG 20218.
Assay [35] relates to Klebsiella aerogenes LMG 02094.

For `CC[C@H](C)[C@H](NC(=O)[C@H](CCCN=C(N)N)NC(=O)[C@@H](NC(=O)[C@@H]1CCCN1C(=O)[C@H](Cc1c[nH]c2ccccc12)NC(=O)[C@@H]1CCCN1C(=O)[C@H](CCCN=C(N)N)NC(=O)[C@H](CCCN=C(N)N)NC(=O)[C@H](Cc1ccccc1)NC(=O)[C@@H]1CCCN1C(=O)[C@H](CC(C)C)NC(=O)[C@H](CCCN=C(N)N)NC(=O)[C@H](Cc1ccccc1)NC(=O)[C@@H](N)CCCN=C(N)N)[C@@H](C)CC)C(=O)N[C@@H](Cc1cnc[nH]1)C(=O)N1CCC[C@H]1C(=O)N1CCC[C@H]1C(=O)N1CCC[C@H]1C(=O)N[C@@H](Cc1ccccc1)C(=O)N[C@@H](Cc1ccc(O)cc1)C(=O)N1CCC[C@H]1C(=O)N[C@@H](Cc1c[nH]c2ccccc12)C(=O)N1CCC[C@H]1C(=O)N[C@@H](Cc1ccccc1)C(=O)N[C@@H](CCCN=C(N)N)C(=O)N[C@@H](CCCN=C(N)N)C(=O)N[C@@H](Cc1ccccc1)C(=O)N[C@@H](CC(C)C)C(=O)O` [RFRLPFRRPWPIRIHPPPFYPWPFRRFL], the MIC in assay [1] is 8 µM (≈ 30 µg/mL); in assay [2], 0.5 µM (≈ 1.87 µg/mL); in assay [3], 11.3 µM (≈ 42.4 µg/mL); in [4], 8 µM (≈ 30 µg/mL); against Escherichia coli ML-35p, 4 µM (≈ 15 µg/mL); in assay [5], 16 µM (≈ 60 µg/mL). Moreover, the MIC is 4 µM (≈ 15 µg/mL) in [6] and 8 µM (≈ 30 µg/mL) in assay [7].

In the case of `NC(=O)CC[C@H](NC(=O)[C@H](CCCN=C(N)N)NC(=O)[C@H](CCCN=C(N)N)NC(=O)[C@@H](N)Cc1c[nH]c2ccccc12)C(=O)N[C@@H](CCCN=C(N)N)C(=O)N[C@@H](Cc1c[nH]c2ccccc12)C(N)=O` [WRRQRW], the MIC in assay [8] and in [9] was not below 130 µM in each case.

In the case of `CC[C@H](C)[C@H](N)C(=O)N[C@@H](CC(C)C)C(=O)N[C@@H](Cc1c[nH]c2ccccc12)C(=O)N[C@@H](C)C(=O)N[C@@H](CCCCN)C(=O)N[C@@H](Cc1c[nH]c2ccccc12)C(=O)NCC(=O)N[C@@H](CC(C)C)C(=O)N[C@@H](CCCCN)C(=O)N[C@@H](CC(C)C)C(=O)N[C@@H](CC(C)C)C(=O)N[C@@H](CCCN=C(N)N)C(=O)N[C@@H](Cc1ccc(O)cc1)C(=O)N[C@@H](CCCN=C(N)N)C(=O)N[C@@H](CCCN=C(N)N)C(=O)N[C@H](C(=O)N[C@@H](Cc1ccc(O)cc1)C(=O)O)[C@@H](C)CC` [ILWAKWGLKLLRYRRIY], the MIC was 4 µM (≈ 9 µg/mL) against Escherichia coli W3110 and not below 64 µM in assay [10].

As for `NCC(=O)NCC(=O)N[C@@H](Cc1cnc[nH]1)C(=O)NCC(=O)N[C@@H](Cc1c[nH]c2ccccc12)C(=O)N[C@@H](CCCN=C(N)N)C(=O)N[C@@H](Cc1c[nH]c2ccccc12)C(=O)N[C@@H](Cc1ccc(O)cc1)C(=O)N[C@@H](CS)C(=O)N[C@@H](CCCN=C(N)N)C(N)=O` [GGHGWRWYCR], the MIC came to 3 µM (≈ 3.83 µg/mL) in assay [11]; 6 µM (≈ 7.66 µg/mL) in assay [12]; 3 µM (≈ 3.83 µg/mL) in [13]; 25 µM (≈ 31.9 µg/mL) in assay [14]; 25 µM (≈ 31.9 µg/mL) in assay [15]; 25 µM (≈ 31.9 µg/mL) in assay [16]. Besides, the MIC in [17] stood at 25 µM (≈ 31.9 µg/mL).

Regarding `CC[C@H](C)[C@H](NC(=O)[C@H](CC(=O)O)NC(=O)[C@H](Cc1ccccc1)NC(=O)[C@H](CC(C)C)NC(=O)CN)C(=O)N[C@H](C(=O)N[C@@H](CCCCN)C(=O)N[C@@H](CCCCN)C(=O)N[C@H](C(=O)N[C@H](C(=O)NCC(=O)N[C@@H](C)C(=O)N[C@@H](CC(C)C)C(=O)NCC(N)=O)C(C)C)C(C)C)C(C)C` [GLFDIVKKVVGALG], the MIC in assay [18] is more than 23 µM; in assay [11], more than 23 µM; in assay [13], more than 23 µM; in [14], more than 23 µM; in assay [19], 23 µM (≈ 32.5 µg/mL); in [20], not below 50 µM. Besides, the MIC in [21] is 23 µM (≈ 32.5 µg/mL); in assay [16] it was more than 23 µM.

In the case of `CC[C@H](C)[C@H](NC(=O)[C@H](CCCN=C(N)N)NC(=O)[C@H](CCCCN)NC(=O)[C@H](CCCCN)NC(=O)[C@@H](NC(=O)[C@H](CCCCN)NC(=O)[C@H](CCC(=O)O)NC(=O)[C@H](CCCCN)NC(=O)[C@@H](N)CCCN=C(N)N)[C@@H](C)CC)C(=O)NCC(=O)N[C@@H](CCCCN)C(=O)N[C@H](C(=O)N[C@@H](CC(=O)O)C(=O)N[C@@H](CCCN=C(N)N)C(=O)N[C@@H](CC(C)C)C(N)=O)[C@@H](C)CC` [RKEKIKKRIGKIDRL], the MIC in assay [11] was more than 133 µM; in [22] it was more than 133 µM; with Acinetobacter baumannii, not below 133 µM; in assay [23], not below 133 µM; in assay [14] it was more than 133 µM; in assay [24], not below 133 µM. For the same compound, the MIC in the assay with Escherichia coli O157:H7 is not below 133 µM; in assay [25] it was not below 133 µM; in assay [26], more than 133 µM; in [27] it was more than 133 µM; in assay [28] it was not below 133 µM; against Vibrio cholerae O1 Inaba it was not below 133 µM.

`C[C@H](N)C(=O)N[C@@H](C)C(=O)N[C@@H](Cc1c[nH]c2ccccc12)C(=O)N[C@@H](CCCCN)C(=O)N[C@@H](CCCCN)C(=O)N[C@@H](C)C(=O)N[C@@H](C)C(=O)N[C@@H](CCCCN)C(=O)N[C@@H](CCCCN)C(=O)N[C@@H](C)C(=O)N[C@@H](C)C(=O)N[C@@H](CCCCN)C(=O)N[C@@H](CO)C(=O)N[C@@H](C)C(=O)N[C@@H](CCCCN)C(=O)N[C@@H](CCCCN)C(=O)N[C@@H](C)C(=O)NCC(N)=O` [AAWKKAAKKAAKSAKKAG]: the MIC was more than 15 µM in [18], 15 µM (≈ 27.2 µg/mL) in assay [29], 15 µM (≈ 27.2 µg/mL) in the assay with Escherichia coli D31 and 15 µM (≈ 27.2 µg/mL) in assay [30].

In the case of `CC[C@H](C)[C@H](NC(=O)[C@H](CCCN=C(N)N)NC(=O)[C@H](CCCCN)NC(=O)[C@H](CCCN=C(N)N)NC(=O)[C@@H](NC(=O)[C@@H](N)CCCN=C(N)N)[C@@H](C)CC)C(=O)N[C@@H](CCCCN)C(=O)N[C@@H](CCCCN)C(=O)N[C@@H](Cc1c[nH]c2ccccc12)C(=O)N[C@@H](CC(C)C)C(=O)N[C@@H](CCCN=C(N)N)C(N)=O` [RIRKRIKKWLR], the MIC in assay [31] was not below 256 µM; in assay [32] it was 16 µM (≈ 24.8 µg/mL); in assay [33], 16 µM (≈ 24.8 µg/mL); in assay [34], not below 256 µM; in assay [35], not below 256 µM.
